± gives the expanded uncertainty stated by the source.
Conditions: Liquid, Pulse-echo method

C=CCCCCCCCCCCCCCC [1-hexadecene]
Conditions | speed of sound [m/s]
303.15 K, 100 kPa | 1314.4 ± 2.9
303.15 K, 2500 kPa | 1327.9 ± 3
303.15 K, 5000 kPa | 1341.7 ± 3
303.15 K, 10000 kPa | 1368.2 ± 3
303.15 K, 15000 kPa | 1393.7 ± 3.1
303.15 K, 20000 kPa | 1418.2 ± 3.1
303.15 K, 30000 kPa | 1464.6 ± 3.2
303.15 K, 40000 kPa | 1508 ± 3.3
303.15 K, 60000 kPa | 1587.7 ± 3.4
303.15 K, 80000 kPa | 1659.7 ± 3.6
303.15 K, 100000 kPa | 1725.7 ± 3.7
313.15 K, 100 kPa | 1278.1 ± 2.9
313.15 K, 2500 kPa | 1292.1 ± 2.9
313.15 K, 5000 kPa | 1306.4 ± 2.9
313.15 K, 10000 kPa | 1333.9 ± 3
313.15 K, 15000 kPa | 1360.2 ± 3
313.15 K, 20000 kPa | 1385.5 ± 3.1
313.15 K, 30000 kPa | 1433.2 ± 3.1
313.15 K, 40000 kPa | 1477.8 ± 3.2
313.15 K, 60000 kPa | 1559.3 ± 3.4
313.15 K, 80000 kPa | 1632.8 ± 3.5
313.15 K, 100000 kPa | 1700 ± 3.6
323.15 K, 100 kPa | 1242.5 ± 2.8
323.15 K, 2500 kPa | 1257.1 ± 2.8
323.15 K, 5000 kPa | 1271.9 ± 2.9
323.15 K, 10000 kPa | 1300.3 ± 2.9
323.15 K, 15000 kPa | 1327.5 ± 3
323.15 K, 20000 kPa | 1353.6 ± 3
323.15 K, 30000 kPa | 1402.7 ± 3.1
323.15 K, 40000 kPa | 1448.4 ± 3.2
323.15 K, 60000 kPa | 1531.8 ± 3.3
323.15 K, 80000 kPa | 1606.8 ± 3.5
323.15 K, 100000 kPa | 1675.2 ± 3.6
333.15 K, 100 kPa | 1207.6 ± 2.8
333.15 K, 2500 kPa | 1222.7 ± 2.8
333.15 K, 5000 kPa | 1238 ± 2.8
333.15 K, 10000 kPa | 1267.5 ± 2.9
333.15 K, 15000 kPa | 1295.6 ± 2.9
333.15 K, 20000 kPa | 1322.4 ± 2.9
333.15 K, 30000 kPa | 1372.9 ± 3
333.15 K, 40000 kPa | 1419.8 ± 3.1
333.15 K, 60000 kPa | 1505.1 ± 3.3
333.15 K, 80000 kPa | 1581.5 ± 3.4
333.15 K, 100000 kPa | 1651.1 ± 3.5
343.15 K, 100 kPa | 1173.2 ± 2.7
343.15 K, 2500 kPa | 1188.9 ± 2.7
343.15 K, 5000 kPa | 1204.9 ± 2.7
343.15 K, 10000 kPa | 1235.4 ± 2.8
343.15 K, 15000 kPa | 1264.4 ± 2.8
343.15 K, 20000 kPa | 1292.1 ± 2.9
343.15 K, 30000 kPa | 1343.9 ± 3
343.15 K, 40000 kPa | 1392 ± 3.1
343.15 K, 60000 kPa | 1479.1 ± 3.2
343.15 K, 80000 kPa | 1556.9 ± 3.4
343.15 K, 100000 kPa | 1627.7 ± 3.5
353.15 K, 100 kPa | 1139.5 ± 2.6
353.15 K, 2500 kPa | 1155.8 ± 2.7
353.15 K, 5000 kPa | 1172.3 ± 2.7
353.15 K, 10000 kPa | 1204 ± 2.7
353.15 K, 15000 kPa | 1233.9 ± 2.8
353.15 K, 20000 kPa | 1262.4 ± 2.8
353.15 K, 30000 kPa | 1315.7 ± 2.9
353.15 K, 40000 kPa | 1364.9 ± 3
353.15 K, 60000 kPa | 1453.9 ± 3.2
353.15 K, 80000 kPa | 1533.1 ± 3.3
353.15 K, 100000 kPa | 1605 ± 3.5
363.15 K, 100 kPa | 1106.4 ± 2.6
363.15 K, 2500 kPa | 1123.3 ± 2.6
363.15 K, 5000 kPa | 1140.5 ± 2.6
363.15 K, 10000 kPa | 1173.2 ± 2.7
363.15 K, 15000 kPa | 1204.1 ± 2.7
363.15 K, 20000 kPa | 1233.5 ± 2.8
363.15 K, 30000 kPa | 1288.2 ± 2.9
363.15 K, 40000 kPa | 1338.6 ± 3
363.15 K, 60000 kPa | 1429.4 ± 3.1
363.15 K, 80000 kPa | 1510 ± 3.3
363.15 K, 100000 kPa | 1583 ± 3.4
373.15 K, 100 kPa | 1073.8 ± 2.5
373.15 K, 2500 kPa | 1091.4 ± 2.6
373.15 K, 5000 kPa | 1109.2 ± 2.6
373.15 K, 10000 kPa | 1143.1 ± 2.6
373.15 K, 15000 kPa | 1175 ± 2.7
373.15 K, 20000 kPa | 1205.2 ± 2.7
373.15 K, 30000 kPa | 1261.4 ± 2.8
373.15 K, 40000 kPa | 1313 ± 2.9
373.15 K, 60000 kPa | 1405.5 ± 3.1
373.15 K, 80000 kPa | 1487.6 ± 3.2
373.15 K, 100000 kPa | 1561.6 ± 3.4
383.15 K, 100 kPa | 1041.7 ± 2.5
383.15 K, 2500 kPa | 1060.1 ± 2.5
383.15 K, 5000 kPa | 1078.6 ± 2.5
383.15 K, 10000 kPa | 1113.6 ± 2.6
383.15 K, 15000 kPa | 1146.5 ± 2.6
383.15 K, 20000 kPa | 1177.7 ± 2.7
383.15 K, 30000 kPa | 1235.3 ± 2.8
383.15 K, 40000 kPa | 1288.1 ± 2.9
383.15 K, 60000 kPa | 1382.4 ± 3
383.15 K, 80000 kPa | 1465.8 ± 3.2
383.15 K, 100000 kPa | 1540.9 ± 3.3
393.15 K, 100 kPa | 1010.2 ± 2.4
393.15 K, 2500 kPa | 1029.3 ± 2.5
393.15 K, 5000 kPa | 1048.5 ± 2.5
393.15 K, 10000 kPa | 1084.8 ± 2.5
393.15 K, 15000 kPa | 1118.8 ± 2.6
393.15 K, 20000 kPa | 1150.8 ± 2.6
393.15 K, 30000 kPa | 1209.9 ± 2.7
393.15 K, 40000 kPa | 1263.8 ± 2.8
393.15 K, 60000 kPa | 1360 ± 3
393.15 K, 80000 kPa | 1444.6 ± 3.2
393.15 K, 100000 kPa | 1520.8 ± 3.3
403.15 K, 100 kPa | 979.2 ± 2.4
403.15 K, 2500 kPa | 999.1 ± 2.4
403.15 K, 5000 kPa | 1019 ± 2.4
403.15 K, 10000 kPa | 1056.6 ± 2.5
403.15 K, 15000 kPa | 1091.6 ± 2.6
403.15 K, 20000 kPa | 1124.6 ± 2.6
403.15 K, 30000 kPa | 1185.2 ± 2.7
403.15 K, 40000 kPa | 1240.3 ± 2.8
403.15 K, 60000 kPa | 1338.2 ± 3
403.15 K, 80000 kPa | 1424.1 ± 3.1
403.15 K, 100000 kPa | 1501.3 ± 3.3
413.15 K, 100 kPa | 948.7 ± 2.4
413.15 K, 2500 kPa | 969.4 ± 2.4
413.15 K, 5000 kPa | 990.1 ± 2.4
413.15 K, 10000 kPa | 1029 ± 2.5
413.15 K, 15000 kPa | 1065.2 ± 2.5
413.15 K, 20000 kPa | 1099 ± 2.6
413.15 K, 30000 kPa | 1161.2 ± 2.7
413.15 K, 40000 kPa | 1217.4 ± 2.7
413.15 K, 60000 kPa | 1317 ± 2.9
413.15 K, 80000 kPa | 1404.2 ± 3.1
413.15 K, 100000 kPa | 1482.4 ± 3.2
423.15 K, 100 kPa | 918.8 ± 2.3
423.15 K, 2500 kPa | 940.3 ± 2.4
423.15 K, 5000 kPa | 961.8 ± 2.4
423.15 K, 10000 kPa | 1002 ± 2.4
423.15 K, 15000 kPa | 1039.3 ± 2.5
423.15 K, 20000 kPa | 1074.1 ± 2.5
423.15 K, 30000 kPa | 1137.8 ± 2.6
423.15 K, 40000 kPa | 1195.2 ± 2.7
423.15 K, 60000 kPa | 1296.5 ± 2.9
423.15 K, 80000 kPa | 1384.9 ± 3
423.15 K, 100000 kPa | 1464 ± 3.2
433.15 K, 100 kPa | 889.2 ± 2.3
433.15 K, 2500 kPa | 911.7 ± 2.3
433.15 K, 5000 kPa | 934 ± 2.3
433.15 K, 10000 kPa | 975.7 ± 2.4
433.15 K, 15000 kPa | 1014.1 ± 2.4
433.15 K, 20000 kPa | 1049.8 ± 2.5
433.15 K, 30000 kPa | 1115 ± 2.6
433.15 K, 40000 kPa | 1173.6 ± 2.7
433.15 K, 60000 kPa | 1276.6 ± 2.8
433.15 K, 80000 kPa | 1366.2 ± 3
433.15 K, 100000 kPa | 1446.2 ± 3.2

Source: the NIST ThermoML archive (doi:10.1016/j.fluid.2006.01.027)
